Data reported in patent US6689773B2, “Uracil substituted phenyl sulfamoyl carboxamides” (BASF Aktiengesellschaft, priority 2000, dated 2004).

Legend:
Type in all cases: in vivo
[1] = tested on: ABUTH, Velvetleaf, Abutilon theophrasti, Medic.; assay: Preemergence herbicidal evaluation (Example 148); details: rating scale 0-9, two to four weeks after treatment
Protocol: (§1) The scale is based upon a visual observation of plant stand, vigor, malformation, size, chlorosis and overall plant appearance as compared with a control.
(§2) The herbicidal activity of the compounds of the present invention was evaluated by the following tests wherein the seeds of a variety of monocotyledonous and dicotyledonous plants were separately mixed with potting soil and planted on top of approximately one inch of soil in separate pint cups. After planting, the cups were sprayed with the selected aqueous acetone solution containing test compound in sufficient quantity to provide the equivalent of about 0.125 to 0.250 kg per hectare of test compound per cup. The treated cups were then placed on greenhouse benches, watered and cared for in accordance with conventional greenhouse procedures. From two to four weeks after treatment, the tests were terminated and each cup was examined and rated according to the rating system provided in Example 94. When more than one test was performed for a given compound, the data were averaged.

[2] = tested on: ECHCG, Barnyardgrass, Echinochloa crusgalli, (L.)Beau; assay: Preemergence herbicidal evaluation (Example 148); details: rating scale 0-9, two to four weeks after treatment
Protocol: as §1, §2

[3] = tested on: DIGSA, Crabgrass, (Hairy) L, Digitaria sanguinalis, (L)Scop; assay: Preemergence herbicidal evaluation (Example 148); details: rating scale 0-9, two to four weeks after treatment
Protocol: as §1, §2

[4] = tested on: ALOMY, Blackgrass, Alopecurus myosuroides; assay: Preemergence herbicidal evaluation (Example 148); details: rating scale 0-9, two to four weeks after treatment
Protocol: as §1, §2

[5] = tested on: SETVI, Green foxtail, Setaria viridis, (L.)Beau; assay: Preemergence herbicidal evaluation (Example 148); details: rating scale 0-9, two to four weeks after treatment
Protocol: as §1, §2

[6] = tested on: IPOHE, Morningglory, Ivyleaf, Ipomoea hederacea, (L)Jacq.; assay: Preemergence herbicidal evaluation (Example 148); details: rating scale 0-9, two to four weeks after treatment
Protocol: as §1, §2

[7] = tested on: AMBEL, Ragweed, Common, Ambrosia artemiisifolia, L.; assay: Preemergence herbicidal evaluation (Example 148); details: rating scale 0-9, two to four weeks after treatment
Protocol: as §1, §2

[8] = tested on: CHEAL, Lambsquarters, Chenopodium album, L. Common; assay: Preemergence herbicidal evaluation (Example 148); details: rating scale 0-9, two to four weeks after treatment
Protocol: as §1, §2

[9] = tested on: ZEAMX, Field corn, Zea mays L.; assay: Preemergence herbicidal evaluation (Example 148); details: rating scale 0-9, two to four weeks after treatment
Protocol: as §1, §2

[10] = tested on: TRZAW, Winter wheat, Tritium Aestivum, L. (Winter); assay: Preemergence herbicidal evaluation (Example 148); details: rating scale 0-9, two to four weeks after treatment
Protocol: as §1, §2

[11] = tested on: ABUTH, Velvetleaf, Abutilon theophrasti, Medic.; assay: Postemergence herbicidal evaluation (Example 147); details: rating scale 0-9, two to three weeks after treatment
Protocol: (§3) Seedling plants were grown in jiffy flats for about two weeks. The test compounds were dispersed in 80/20 acetone/water mixtures containing 1.0% SUN-IT®II, a methylated seed oil, in sufficient quantities to provide the equivalent of about 0.016 to 0.032 kg per hectare of active compound when applied to the plants through a spray nozzle operating at 40 psi for a predetermined time. After spraying, the plants were placed on greenhouse benches and were cared for in accordance with conventional greenhouse procedures. Approximately two to three weeks after treatment, the seedling plants were examined and rated according to the rating scale (0-9) set forth below. Where more than one test is involved for a given compound, the data are averaged. [table] The scale is based upon a visual observation of plant stand, vigor, malformation, size, chlorosis and overall plant appearance as compared with a control. Plant species employed in these evaluations are reported by header abbreviation, common name and scientific name. [table]

[12] = tested on: ECHCG, Barnyardgrass, Echinochloa crusgalli, (L.)Beau; assay: Postemergence herbicidal evaluation (Example 147); details: rating scale 0-9, two to three weeks after treatment
Protocol: as §3

[13] = tested on: DIGSA, Crabgrass, (Hairy) L, Digitaria sanguinalis, (L)Scop; assay: Postemergence herbicidal evaluation (Example 147); details: rating scale 0-9, two to three weeks after treatment
Protocol: as §3

[14] = tested on: ALOMY, Blackgrass, Alopecurus myosuroides; assay: Postemergence herbicidal evaluation (Example 147); details: rating scale 0-9, two to three weeks after treatment
Protocol: as §3

[15] = tested on: SETVI, Green foxtail, Setaria viridis, (L.)Beau; assay: Postemergence herbicidal evaluation (Example 147); details: rating scale 0-9, two to three weeks after treatment
Protocol: as §3

[16] = tested on: XANST, Cocklebur, Xanthium strumariam; assay: Postemergence herbicidal evaluation (Example 147); details: rating scale 0-9, two to three weeks after treatment
Protocol: as §3

[17] = tested on: IPOHE, Morningglory, Ivyleaf, Ipomoea hederacea, (L)Jacq.; assay: Postemergence herbicidal evaluation (Example 147); details: rating scale 0-9, two to three weeks after treatment
Protocol: as §3

[18] = tested on: AMBEL, Ragweed, Common, Ambrosia artemiisifolia, L.; assay: Postemergence herbicidal evaluation (Example 147); details: rating scale 0-9, two to three weeks after treatment
Protocol: as §3

[19] = tested on: CHEAL, Lambsquarters, Chenopodium album, L. Common; assay: Postemergence herbicidal evaluation (Example 147); details: rating scale 0-9, two to three weeks after treatment
Protocol: as §3

[20] = tested on: ZEAMX, Field corn, Zea mays L.; assay: Postemergence herbicidal evaluation (Example 147); details: rating scale 0-9, two to three weeks after treatment
Protocol: as §3

[21] = tested on: TRZAW, Winter wheat, Tritium Aestivum, L. (Winter); assay: Postemergence herbicidal evaluation (Example 147); details: rating scale 0-9, two to three weeks after treatment
Protocol: as §3

[22] = tested on: GLXMA, Soybean, Glycine max, (L.) Merr.; assay: Postemergence herbicidal evaluation (Example 147); details: rating scale 0-9, two to three weeks after treatment
Protocol: as §3

CCCN(C)S(=O)(=O)NC(=O)c1cc(-n2c(=O)cc(C(F)(F)F)n(C)c2=O)c(F)cc1Cl [Example 67]
3.0: Postemergence herbicidal rating ALMOY ([14]; rate 0.032 kg/ha)
7.5: Postemergence herbicidal rating ZEAMX ([20]; rate 0.016 kg/ha) | Postemergence herbicidal rating ZEAMX ([20]; rate 0.032 kg/ha)
6.5: Postemergence herbicidal rating TRZAW ([21]; rate 0.016 kg/ha)
8.0: Preemergence herbicidal rating ECHCG ([2]; rate 0.125 kg/ha) | Preemergence herbicidal rating DIGSA ([3]; rate 0.25 kg/ha) | Preemergence herbicidal rating SETVI ([5]; rate 0.125 kg/ha) | Preemergence herbicidal rating SETVI ([5]; rate 0.25 kg/ha) | Postemergence herbicidal rating ECHCG ([12]; rate 0.016 kg/ha) | Postemergence herbicidal rating ECHCG ([12]; rate 0.032 kg/ha) | Postemergence herbicidal rating SETVI ([15]; rate 0.016 kg/ha) | Postemergence herbicidal rating SETVI ([15]; rate 0.032 kg/ha) | Postemergence herbicidal rating GLXMA ([22]; rate 0.016 kg/ha)
1.0: Preemergence herbicidal rating ZEAMX ([9]; rate 0.25 kg/ha) | Preemergence herbicidal rating TRZAW ([10]; rate 0.25 kg/ha)
9.0: Preemergence herbicidal rating ABUTH ([1]; rate 0.125 kg/ha) | Preemergence herbicidal rating ABUTH ([1]; rate 0.25 kg/ha) | Preemergence herbicidal rating ECHCG ([2]; rate 0.25 kg/ha) | Preemergence herbicidal rating IPOHE ([6]; rate 0.125 kg/ha) | Preemergence herbicidal rating IPOHE ([6]; rate 0.25 kg/ha) | Preemergence herbicidal rating AMBEL ([7]; rate 0.125 kg/ha) | Preemergence herbicidal rating CHEAL ([8]; rate 0.125 kg/ha) | Preemergence herbicidal rating CHEAL ([8]; rate 0.25 kg/ha) | Postemergence herbicidal rating ABUTH ([11]; rate 0.016 kg/ha) | Postemergence herbicidal rating ABUTH ([11]; rate 0.032 kg/ha) | Postemergence herbicidal rating XANST ([16]; rate 0.016 kg/ha) | Postemergence herbicidal rating XANST ([16]; rate 0.032 kg/ha) | Postemergence herbicidal rating IPOHE ([17]; rate 0.016 kg/ha) | Postemergence herbicidal rating IPOHE ([17]; rate 0.032 kg/ha) | Postemergence herbicidal rating AMBEL ([18]; rate 0.016 kg/ha) | Postemergence herbicidal rating AMBEL ([18]; rate 0.032 kg/ha) | Postemergence herbicidal rating CHEAL ([19]; rate 0.016 kg/ha) | Postemergence herbicidal rating CHEAL ([19]; rate 0.032 kg/ha)
7.0: Preemergence herbicidal rating DIGSA ([3]; rate 0.125 kg/ha) | Preemergence herbicidal rating AMBEL ([7]; rate 0.25 kg/ha) | Postemergence herbicidal rating TRZAW ([21]; rate 0.032 kg/ha)
2.0: Postemergence herbicidal rating ALMOY ([14]; rate 0.016 kg/ha)
8.5: Postemergence herbicidal rating GLXMA ([22]; rate 0.032 kg/ha)
0.0: Preemergence herbicidal rating ALMOY ([4]; rate 0.125 kg/ha) | Preemergence herbicidal rating ALMOY ([4]; rate 0.25 kg/ha) | Preemergence herbicidal rating ZEAMX ([9]; rate 0.125 kg/ha) | Preemergence herbicidal rating TRZAW ([10]; rate 0.125 kg/ha)
6.0: Postemergence herbicidal rating DIGSA ([13]; rate 0.016 kg/ha) | Postemergence herbicidal rating DIGSA ([13]; rate 0.032 kg/ha)
